Measured values: patent US9102752B2, “Peptide vaccine for prevention and immunotherapy of dementia of the Alzheimer's type” (United Biomedical, Inc., priority 2013, dated 2015)

Tests used:
[1] = system: anti-Aβ antibodies in sera of vaccinated patients; assay: Epitope mapping, competitive binding inhibition EIA with patient sera (10-mer peptides, IC50); set-up: species or system human; Epitope mapping, fine specificity analysis, serum of subject P210: unit not given here; details: for Epitope mapping, fine specificity analysis, serum of subject P101: serum 16 wpi of vaccinated patient P101; for Epitope mapping, fine specificity analysis, serum of subject P102: serum 16 wpi of vaccinated patient P102; for Epitope mapping, fine specificity analysis, serum of subject P103: serum 16 wpi of vaccinated patient P103; for Epitope mapping, fine specificity analysis, serum of subject P104: serum 16 wpi of vaccinated patient P104; for Epitope mapping, fine specificity analysis, serum of subject P105: serum 16 wpi of vaccinated patient P105; for Epitope mapping, fine specificity analysis, serum of subject P106: serum 16 wpi of vaccinated patient P106; for Epitope mapping, fine specificity analysis, serum of subject P107: serum 16 wpi of vaccinated patient P107; for Epitope mapping, fine specificity analysis, serum of subject P108: serum 16 wpi of vaccinated patient P108; for Epitope mapping, fine specificity analysis, serum of subject P109: serum 16 wpi of vaccinated patient P109; for Epitope mapping, fine specificity analysis, serum of subject P201: serum 16 wpi of vaccinated patient P201; for Epitope mapping, fine specificity analysis, serum of subject P202: serum 16 wpi of vaccinated patient P202; for Epitope mapping, fine specificity analysis, serum of subject P203: serum 16 wpi of vaccinated patient P203; for Epitope mapping, fine specificity analysis, serum of subject P204: serum 16 wpi of vaccinated patient P204; for Epitope mapping, fine specificity analysis, serum of subject P205: serum 16 wpi of vaccinated patient P205; for Epitope mapping, fine specificity analysis, serum of subject P206: serum 16 wpi of vaccinated patient P206; for Epitope mapping, fine specificity analysis, serum of subject P207: serum 16 wpi of vaccinated patient P207; for Epitope mapping, fine specificity analysis, serum of subject P208: serum 16 wpi of vaccinated patient P208; for Epitope mapping, fine specificity analysis, serum of subject P209: serum 16 wpi of vaccinated patient P209; for Epitope mapping, fine specificity analysis, serum of subject P210: serum 16 wpi of vaccinated patient P210
[2] = system: anti-Aβ antibodies in macaque antisera; assay: Specificity analysis (10-mer peptide ELISA) of antisera from Cynomolgus macaques; type: binding
[3] = antisera of macaques given UBI AD Vaccine 150 μg/dose, 9 WPI
[4] = antisera of macaques given UBI AD Vaccine 150 μg/dose, 15 WPI
[5] = antisera of macaques given UBI AD Vaccine 750 μg/dose, 9 WPI
[6] = antisera of macaques given UBI AD Vaccine 750 μg/dose, 15 WPI

Substance: 10 (EISEVKMDAE; PEPTIDE (1)..(10) Abeta -7-3 or APP 770(E665-E674); listed as Homo sapiens) [compound 10]
- Epitope mapping, fine specificity analysis, serum of subject P101 [1]: 0
- Epitope mapping, fine specificity analysis, serum of subject P102 [1]: 0
- Epitope mapping, fine specificity analysis, serum of subject P103 [1]: 0
- Epitope mapping, fine specificity analysis, serum of subject P104 [1]: 0
- Epitope mapping, fine specificity analysis, serum of subject P105 [1]: 0
- Epitope mapping, fine specificity analysis, serum of subject P106 [1]: 0
- Epitope mapping, fine specificity analysis, serum of subject P107 [1]: 0
- Epitope mapping, fine specificity analysis, serum of subject P108 [1]: 0
- Epitope mapping, fine specificity analysis, serum of subject P109 [1]: 0
- Epitope mapping, fine specificity analysis, serum of subject P201 [1]: 0
- Epitope mapping, fine specificity analysis, serum of subject P202 [1]: 0
- Epitope mapping, fine specificity analysis, serum of subject P203 [1]: 0
- Epitope mapping, fine specificity analysis, serum of subject P204 [1]: 0
- Epitope mapping, fine specificity analysis, serum of subject P205 [1]: 0
- Epitope mapping, fine specificity analysis, serum of subject P206 [1]: 0
- Epitope mapping, fine specificity analysis, serum of subject P207 [1]: 0
- Epitope mapping, fine specificity analysis, serum of subject P208 [1]: 0
- Epitope mapping, fine specificity analysis, serum of subject P209 [1]: 0
- Epitope mapping, fine specificity analysis, serum of subject P210 [1]: 0
- Reactivity of antisera with peptide (specificity analysis ELISA) [2, 3]: 0.060
- Reactivity of antisera with peptide (specificity analysis ELISA) [2, 4]: 0.056
- Reactivity of antisera with peptide (specificity analysis ELISA) [2, 5]: 0.064
- Reactivity of antisera with peptide (specificity analysis ELISA) [2, 6]: 0.053

Substance: 19 (FRHDSGYEVH; PEPTIDE (1)..(10) Abeta 4-13 or APP 770(F675-H684); listed as Homo sapiens) [compound 19]
- Epitope mapping, fine specificity analysis, serum of subject P101 [1]: 0
- Epitope mapping, fine specificity analysis, serum of subject P102 [1]: 0
- Epitope mapping, fine specificity analysis, serum of subject P103 [1]: 0
- Epitope mapping, fine specificity analysis, serum of subject P104 [1]: 0
- Epitope mapping, fine specificity analysis, serum of subject P105 [1]: 0
- Epitope mapping, fine specificity analysis, serum of subject P106 [1]: 0
- Epitope mapping, fine specificity analysis, serum of subject P107 [1]: 0
- Epitope mapping, fine specificity analysis, serum of subject P108 [1]: 0
- Epitope mapping, fine specificity analysis, serum of subject P109 [1]: 0
- Epitope mapping, fine specificity analysis, serum of subject P201 [1]: 0
- Epitope mapping, fine specificity analysis, serum of subject P202 [1]: 0
- Epitope mapping, fine specificity analysis, serum of subject P203 [1]: 0
- Epitope mapping, fine specificity analysis, serum of subject P204 [1]: 0
- Epitope mapping, fine specificity analysis, serum of subject P205 [1]: 0
- Epitope mapping, fine specificity analysis, serum of subject P206 [1]: 0
- Epitope mapping, fine specificity analysis, serum of subject P207 [1]: 0
- Epitope mapping, fine specificity analysis, serum of subject P208 [1]: 0
- Epitope mapping, fine specificity analysis, serum of subject P209 [1]: 0
- Epitope mapping, fine specificity analysis, serum of subject P210 [1]: 0
- Reactivity of antisera with peptide (specificity analysis ELISA) [2, 3]: 0.085
- Reactivity of antisera with peptide (specificity analysis ELISA) [2, 4]: 0.076
- Reactivity of antisera with peptide (specificity analysis ELISA) [2, 5]: 0.066
- Reactivity of antisera with peptide (specificity analysis ELISA) [2, 6]: 0.096

Substance: 20 (RHDSGYEVHH; PEPTIDE (1)..(10) Abeta 5-14 or APP 770(R676-H685); listed as Homo sapiens) [compound 20]
- Epitope mapping, fine specificity analysis, serum of subject P101 [1]: 0
- Epitope mapping, fine specificity analysis, serum of subject P102 [1]: 0
- Epitope mapping, fine specificity analysis, serum of subject P103 [1]: 0
- Epitope mapping, fine specificity analysis, serum of subject P104 [1]: 0
- Epitope mapping, fine specificity analysis, serum of subject P105 [1]: 0
- Epitope mapping, fine specificity analysis, serum of subject P106 [1]: 0
- Epitope mapping, fine specificity analysis, serum of subject P107 [1]: 0
- Epitope mapping, fine specificity analysis, serum of subject P108 [1]: 0
- Epitope mapping, fine specificity analysis, serum of subject P109 [1]: 0
- Epitope mapping, fine specificity analysis, serum of subject P201 [1]: 0
- Epitope mapping, fine specificity analysis, serum of subject P202 [1]: 0
- Epitope mapping, fine specificity analysis, serum of subject P203 [1]: 0
- Epitope mapping, fine specificity analysis, serum of subject P204 [1]: 0
- Epitope mapping, fine specificity analysis, serum of subject P205 [1]: 0
- Epitope mapping, fine specificity analysis, serum of subject P206 [1]: 0
- Epitope mapping, fine specificity analysis, serum of subject P207 [1]: 0
- Epitope mapping, fine specificity analysis, serum of subject P208 [1]: 0
- Epitope mapping, fine specificity analysis, serum of subject P209 [1]: 0
- Epitope mapping, fine specificity analysis, serum of subject P210 [1]: 0
- Reactivity of antisera with peptide (specificity analysis ELISA) [2, 3]: 0.296
- Reactivity of antisera with peptide (specificity analysis ELISA) [2, 4]: 0.400
- Reactivity of antisera with peptide (specificity analysis ELISA) [2, 5]: 0.453
- Reactivity of antisera with peptide (specificity analysis ELISA) [2, 6]: 0.461

Substance: 21 (HDSGYEVHHQ; PEPTIDE (1)..(10) Abeta 6-15 or APP 770(H677-Q686); listed as Homo sapiens) [compound 21]
- Epitope mapping, fine specificity analysis, serum of subject P101 [1]: 0
- Epitope mapping, fine specificity analysis, serum of subject P102 [1]: 0
- Epitope mapping, fine specificity analysis, serum of subject P103 [1]: 0
- Epitope mapping, fine specificity analysis, serum of subject P104 [1]: 0
- Epitope mapping, fine specificity analysis, serum of subject P105 [1]: 0
- Epitope mapping, fine specificity analysis, serum of subject P106 [1]: 0
- Epitope mapping, fine specificity analysis, serum of subject P107 [1]: 0
- Epitope mapping, fine specificity analysis, serum of subject P108 [1]: 0
- Epitope mapping, fine specificity analysis, serum of subject P109 [1]: 0
- Epitope mapping, fine specificity analysis, serum of subject P201 [1]: 0
- Epitope mapping, fine specificity analysis, serum of subject P202 [1]: 0
- Epitope mapping, fine specificity analysis, serum of subject P203 [1]: 0
- Epitope mapping, fine specificity analysis, serum of subject P204 [1]: 0
- Epitope mapping, fine specificity analysis, serum of subject P205 [1]: 0
- Epitope mapping, fine specificity analysis, serum of subject P206 [1]: 0
- Epitope mapping, fine specificity analysis, serum of subject P207 [1]: 0
- Epitope mapping, fine specificity analysis, serum of subject P208 [1]: 0
- Epitope mapping, fine specificity analysis, serum of subject P209 [1]: 0
- Epitope mapping, fine specificity analysis, serum of subject P210 [1]: 0
- Reactivity of antisera with peptide (specificity analysis ELISA) [2, 3]: 0.266
- Reactivity of antisera with peptide (specificity analysis ELISA) [2, 4]: 0.494
- Reactivity of antisera with peptide (specificity analysis ELISA) [2, 5]: 0.419
- Reactivity of antisera with peptide (specificity analysis ELISA) [2, 6]: 0.332

Substance: 29 (HQKLVFFAED; PEPTIDE (1)..(10) Abeta 14-23 or APP 770(H685-D694); listed as Homo sapiens) [compound 29]
- Epitope mapping, fine specificity analysis, serum of subject P101 [1]: 0
- Epitope mapping, fine specificity analysis, serum of subject P102 [1]: 0
- Epitope mapping, fine specificity analysis, serum of subject P103 [1]: 0
- Epitope mapping, fine specificity analysis, serum of subject P104 [1]: 0
- Epitope mapping, fine specificity analysis, serum of subject P105 [1]: 0
- Epitope mapping, fine specificity analysis, serum of subject P106 [1]: 0
- Epitope mapping, fine specificity analysis, serum of subject P107 [1]: 0
- Epitope mapping, fine specificity analysis, serum of subject P108 [1]: 0
- Epitope mapping, fine specificity analysis, serum of subject P109 [1]: 0
- Epitope mapping, fine specificity analysis, serum of subject P201 [1]: 0
- Epitope mapping, fine specificity analysis, serum of subject P202 [1]: 0
- Epitope mapping, fine specificity analysis, serum of subject P203 [1]: 0
- Epitope mapping, fine specificity analysis, serum of subject P204 [1]: 0
- Epitope mapping, fine specificity analysis, serum of subject P205 [1]: 0
- Epitope mapping, fine specificity analysis, serum of subject P206 [1]: 0
- Epitope mapping, fine specificity analysis, serum of subject P207 [1]: 0
- Epitope mapping, fine specificity analysis, serum of subject P208 [1]: 0
- Epitope mapping, fine specificity analysis, serum of subject P209 [1]: 0
- Epitope mapping, fine specificity analysis, serum of subject P210 [1]: 0
- Reactivity of antisera with peptide (specificity analysis ELISA) [2, 3]: 0.050
- Reactivity of antisera with peptide (specificity analysis ELISA) [2, 4]: 0.058
- Reactivity of antisera with peptide (specificity analysis ELISA) [2, 5]: 0.047
- Reactivity of antisera with peptide (specificity analysis ELISA) [2, 6]: 0.050
